Laboratory results reported in patent US9938281B2 (Merck Sharp & Dohme Corp., priority 2012, dated 2018).

Columns and labels:
PI3K-delta = target: T1, PI3K-delta (Homo sapiens, UniProt O00329); assay: HTRF PI3K biochemical assay, delta isoform; details: form screened (neutral or TFA salt) given, read-out: PI3Kdelta IC50
T1 construct: purchased Upstate; Millipore 14-604

PI3K-alpha = target: T2, PI3K-alpha (Homo sapiens, UniProt P42336); assay: HTRF PI3K biochemical assay, alpha isoform; details: ratio PI3K-alpha IC50 value / PI3K-delta IC50 value
T2 construct: purchased Upstate; Millipore 14-602
T2 sequence (P42336 whole entry, canonical isoform): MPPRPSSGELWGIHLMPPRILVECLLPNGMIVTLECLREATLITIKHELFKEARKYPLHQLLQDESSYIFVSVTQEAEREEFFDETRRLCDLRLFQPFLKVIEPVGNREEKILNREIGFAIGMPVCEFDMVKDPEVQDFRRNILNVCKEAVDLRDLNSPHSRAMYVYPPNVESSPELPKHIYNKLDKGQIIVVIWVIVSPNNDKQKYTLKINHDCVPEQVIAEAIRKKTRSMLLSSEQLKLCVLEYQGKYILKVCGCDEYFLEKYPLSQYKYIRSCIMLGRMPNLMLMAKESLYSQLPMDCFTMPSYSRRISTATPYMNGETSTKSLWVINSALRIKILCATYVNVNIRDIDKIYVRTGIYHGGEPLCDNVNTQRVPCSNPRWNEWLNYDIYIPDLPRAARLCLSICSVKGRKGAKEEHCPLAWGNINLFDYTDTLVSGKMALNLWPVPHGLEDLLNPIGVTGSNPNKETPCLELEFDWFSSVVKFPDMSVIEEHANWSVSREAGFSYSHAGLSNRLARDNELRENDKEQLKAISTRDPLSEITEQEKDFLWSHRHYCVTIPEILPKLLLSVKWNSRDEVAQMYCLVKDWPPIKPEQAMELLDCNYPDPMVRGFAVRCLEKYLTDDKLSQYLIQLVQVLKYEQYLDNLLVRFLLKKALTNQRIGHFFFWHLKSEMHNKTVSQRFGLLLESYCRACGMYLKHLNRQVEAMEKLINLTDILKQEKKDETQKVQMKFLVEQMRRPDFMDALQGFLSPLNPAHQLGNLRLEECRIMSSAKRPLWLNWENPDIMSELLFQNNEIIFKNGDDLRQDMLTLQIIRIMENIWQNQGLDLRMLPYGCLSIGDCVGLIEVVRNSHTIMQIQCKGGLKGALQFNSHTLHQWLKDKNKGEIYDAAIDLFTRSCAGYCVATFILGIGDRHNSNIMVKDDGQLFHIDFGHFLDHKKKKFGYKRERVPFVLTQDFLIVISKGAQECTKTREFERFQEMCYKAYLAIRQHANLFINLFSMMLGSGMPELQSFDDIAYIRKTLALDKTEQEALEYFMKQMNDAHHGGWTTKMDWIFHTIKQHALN
T2 sequence (P27986 whole entry partner, canonical isoform): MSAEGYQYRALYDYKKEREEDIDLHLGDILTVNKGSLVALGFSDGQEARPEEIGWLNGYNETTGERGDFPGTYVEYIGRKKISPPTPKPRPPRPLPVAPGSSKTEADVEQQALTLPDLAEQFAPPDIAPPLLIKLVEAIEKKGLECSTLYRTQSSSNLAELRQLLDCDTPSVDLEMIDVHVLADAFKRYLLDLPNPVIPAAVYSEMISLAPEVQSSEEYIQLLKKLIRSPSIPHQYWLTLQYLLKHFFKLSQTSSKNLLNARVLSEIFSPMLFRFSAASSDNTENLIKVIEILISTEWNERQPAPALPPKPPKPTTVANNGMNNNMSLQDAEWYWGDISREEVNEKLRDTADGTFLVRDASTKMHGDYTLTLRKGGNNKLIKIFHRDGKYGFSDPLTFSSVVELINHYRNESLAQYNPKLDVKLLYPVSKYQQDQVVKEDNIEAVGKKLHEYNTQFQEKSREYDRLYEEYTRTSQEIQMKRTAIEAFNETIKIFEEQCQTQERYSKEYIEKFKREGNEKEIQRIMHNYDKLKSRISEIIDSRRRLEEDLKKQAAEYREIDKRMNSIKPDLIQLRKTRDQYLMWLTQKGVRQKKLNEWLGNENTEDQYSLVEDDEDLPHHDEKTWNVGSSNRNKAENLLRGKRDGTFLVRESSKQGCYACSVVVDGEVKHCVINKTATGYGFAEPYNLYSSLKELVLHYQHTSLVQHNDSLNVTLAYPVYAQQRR
Source text: The PI3-Kinase biochemical assays were developed to measure the intrinsic potency and compound dependent inhibition of the alpha, beta, delta, and gamma PI3K isoform enzymes. This assay was developed and further optimized from a kit produced by Upstate (Millipore catalog #33-047) and has been configured for HTS and SAR screening. Briefly, this procedure exploits the exquisite specificity and high affinity binding of enzyme reaction substrate phosphatidyl(3,4,5)triphosphate (PIP3) to the GRP1 pleckstrin homology (PH) domain to generate the signal. In the absence of PIP3, an HTRF (Homogeneous Time-Resolved Fluorescence energy transfer) complex is formed consisting of europium (Eu)-labeled anti-GST, GSTtagged GRP1-PH domain, biotin-PIP3 and streptavidin conjugated APC. The native PIP3 produced by PI3-Kinase activity disrupts in a competitive manner the biotin-PIP3 from the PH domain, resulting in the loss of energy transfer (HTRF complex) and a decrease in the signal. The format of this assay is the same for all 4 isoforms of PI3K; the differences lie in the concentration of enzyme used to achieve robust assay window. The alpha, beta, and delta assays are run at 0.5, 1, and 0.3 nM enzymes and the gamma assay is run at 5 nM enzyme. The ATP concentration is 100 uM in the alpha, beta, and delta assays and 50 uM ATP in the gamma assay. All reactions are run at 5 uM PIP2.
Compounds are serially diluted (3-fold in 100% DMSO) across a 384-well polypropylene source plated from column 3 to column 12 and column 13 to column 22, to yield 10 concentration dose response for each test compound. Columns 1, 2, 23 and 24 contain either only DMSO or pharmacological known control inhibitor.
The PI3-Kinase biochemical assay was optimized using the HTRF kit provided by Upstate (Millipore). The assay kit contains six reagents: 1) 4× Reaction Buffer; 2) native PIP2 (substrate); 3) Stop (EDTA); 4) Detection Mix A (Streptavidin-APC); 5) Detection Mix B (Eu-labeled Anti-GST plus GST-tagged PH-domain); 6) Detection Mix C.
PI3Kinase Reaction Buffer is prepared by dilution the stock 1:4 with de-ionized water. […] Enzyme addition and compound pre-incubation are initiated by the addition of 1.25 ul of PI3K (at twice its final concentration) in the 1× reaction buffer to all wells using a BioRaptor. Plates are incubated at room temperature for 15 minutes. Reactions are initiated by addition of 1.25 ul of 2× substrate solution (PIP2 and ATP in 1× reaction buffer) using BioRaptor. Plates are incubated in humidified chamber at room temperature for one hour. Reactions are quenched by addition of 0.625 uL of stop solution to all wells using the BioRaptor. The quenched reactions are then processed to detect product formation by adding 0.625 uL of Detection Solution to all wells using the BioRaptor (Detection mix C, Detection Mix A, and Detection Mix B combined together in an 18:1:1 ratio prepared 2 hours prior to use).
The loss of the HTRF signal is due to the displacement of biotinylated-PIP3 from the PH domain by the PI3K-dependent conversion of PIP2 to PIP3. This loss of signal is nonlinear with respect to both increasing product and time. This non-linear detection will impact accuracy of IC50 calculations; therefore, there is a need for a correction factor to obtain more accurate IC50 values. This correction is derived from a PIP3 standard curve run in a separate assay plate. All data were calculated using the ratio of acceptor (APC) to donor (Europium) fluorescence in each well of the assay plate. […] An IC50 was then calculated fitting the % inhibition data to the equation: % inhibition=min+(Max−min)/1+([inhibitor]/IC50)^n) where min is the % inhibition with inhibitor, max is the signal in DMSO control, and n is the Hill slope.
The determination of relative selectivity for a given compound is defined as the relative ratio of the (PI3K-alphalC50 value/PI3K-delta IC50 value).

T1 sequence (O00329 whole entry, canonical isoform): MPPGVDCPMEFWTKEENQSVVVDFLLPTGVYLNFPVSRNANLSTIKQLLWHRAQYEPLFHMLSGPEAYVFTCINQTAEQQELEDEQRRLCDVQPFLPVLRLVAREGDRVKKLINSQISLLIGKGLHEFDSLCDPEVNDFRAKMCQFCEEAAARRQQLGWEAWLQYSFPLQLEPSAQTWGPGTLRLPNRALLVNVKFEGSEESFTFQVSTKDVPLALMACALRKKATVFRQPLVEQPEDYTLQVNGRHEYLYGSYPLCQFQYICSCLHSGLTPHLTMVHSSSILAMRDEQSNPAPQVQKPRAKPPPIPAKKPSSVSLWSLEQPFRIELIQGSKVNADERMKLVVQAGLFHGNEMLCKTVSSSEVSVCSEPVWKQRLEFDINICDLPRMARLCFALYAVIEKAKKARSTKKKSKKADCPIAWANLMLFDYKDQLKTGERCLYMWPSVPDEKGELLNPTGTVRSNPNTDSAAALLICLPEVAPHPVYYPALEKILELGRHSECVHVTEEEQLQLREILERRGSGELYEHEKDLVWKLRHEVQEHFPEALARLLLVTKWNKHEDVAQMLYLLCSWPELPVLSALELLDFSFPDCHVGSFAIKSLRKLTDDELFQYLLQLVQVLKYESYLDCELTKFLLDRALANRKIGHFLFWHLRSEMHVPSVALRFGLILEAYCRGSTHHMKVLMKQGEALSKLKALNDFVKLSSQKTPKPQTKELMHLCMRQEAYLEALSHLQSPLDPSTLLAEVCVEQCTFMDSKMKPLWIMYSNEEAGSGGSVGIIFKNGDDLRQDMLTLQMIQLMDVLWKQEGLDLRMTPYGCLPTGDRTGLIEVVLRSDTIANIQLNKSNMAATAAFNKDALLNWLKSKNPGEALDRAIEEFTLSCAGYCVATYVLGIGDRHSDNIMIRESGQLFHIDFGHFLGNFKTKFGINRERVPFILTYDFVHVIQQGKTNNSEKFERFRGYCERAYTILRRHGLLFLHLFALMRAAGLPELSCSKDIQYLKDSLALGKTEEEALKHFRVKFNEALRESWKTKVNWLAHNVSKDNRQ
T1 sequence (P27986 whole entry partner, canonical isoform): as the sequence (P27986 whole entry partner, canonical isoform) above

SMILES: CCn1c(-c2cnc(C)nc2)nc2c(N[C@H]3CCN(C(=O)NC4CC4)C3)ncnc21 [Compound 12-6, (3S)-N-cyclopropyl-3-{[9-ethyl-8-(2-methylpyrimidin-5-yl)-9H-purin-6-yl]amino}pyrrolidine-1-carboxamide]
- IC50 (PI3K-delta): 1.7 nM
- Selectivity versus PI3Kalpha (PI3K-alpha): >10

SMILES: CCn1c(-c2cnc(C)nc2)nc2c(N[C@H]3CCN(C(=O)NCC4CC4)C3)ncnc21 [Compound 12-7, (3S)-N-(cyclopropylmethyl)-3-{[9-ethyl-8-(2-methylpyrimidin-5-yl)-9H-purin-6-yl]amino}pyrrolidine-1-carboxamide]
- IC50 (PI3K-delta): 6.4 nM
- Selectivity versus PI3Kalpha (PI3K-alpha): >10

SMILES: CCn1c(-c2cnc(C)nc2)nc2c(N[C@H]3CCN(C(=O)NCC(F)(F)F)C3)ncnc21 [Compound 12-8, (3S)-3-{[9-ethyl-8-(2-methylpyrimidin-5-yl)-9H-purin-6-yl]amino}-N-(2,2,2-trifluoroethyl)pyrrolidine-1-carboxamide]
- IC50 (PI3K-delta): 9.7 nM
- Selectivity versus PI3Kalpha (PI3K-alpha): >10

SMILES: CCn1c(-c2cnc(C)nc2)nc2c(N[C@H]3CCN(C(=O)N4CCC4)C3)ncnc21 [Compound 12-9, N-[(3S)-1-(azetidin-1-ylcarbonyl)pyrrolidin-3-yl]-9-ethyl-8-(2-methylpyrimidin-5-yl)-9H-purin-6-amine]
- IC50 (PI3K-delta): 1.4 nM
- Selectivity versus PI3Kalpha (PI3K-alpha): >10

SMILES: CCn1c(-c2cnc(C)nc2)nc2c(N[C@H]3CCN(C(=O)N4CC(OC)C4)C3)ncnc21 [Compound 12-10, 9-ethyl-N-{(3S)-1-[(3-methoxyazetidin-1-yl)carbonyl]pyrrolidin-3-yl}-8-(2-methylpyrimidin-5-yl)-9H-purin-6-amine]
- IC50 (PI3K-delta): < 1 nM
- Selectivity versus PI3Kalpha (PI3K-alpha): >10

SMILES: CCn1c(-c2cnc(C)nc2)nc2c(N[C@H]3CCN(C(=O)N4CCC(C)(C)C4)C3)ncnc21 [Compound 12-11, N-{(3S)-1-[(3,3-dimethylpyrrolidin-1-yl)carbonyl]pyrrolidin-3-yl}-9-ethyl-8-(2-methylpyrimidin-5-yl)-9H-purin-6-amine]
- IC50 (PI3K-delta): < 1 nM
- Selectivity versus PI3Kalpha (PI3K-alpha): >10

SMILES: CCn1c(-c2cnc(C)nc2)nc2c(N[C@H]3CCN(C(=O)N4CC[C@@H](F)C4)C3)ncnc21 [Compound 12-12, 9-ethyl-N-[(3S)-1-{[(3R)-3-fluoropyrrolidin-1-yl]carbonyl}pyrrolidin-3-yl]-8-(2-methylpyrimidin-5-yl)-9H-purin-6-amine]
- IC50 (PI3K-delta): 2.9 nM
- Selectivity versus PI3Kalpha (PI3K-alpha): >10

SMILES: CCn1c(-c2cnc(C)nc2)nc2c(N[C@H]3CCN(C(=O)N4CC[C@H](F)C4)C3)ncnc21 [Compound 12-13, 9-ethyl-N-[(3S)-1-{[(3S)-3-fluoropyrrolidin-1-yl]carbonyl}pyrrolidin-3-yl]-8-(2-methylpyrimidin-5-yl)-9H-purin-6-amine]
- IC50 (PI3K-delta): 1.7 nM
- Selectivity versus PI3Kalpha (PI3K-alpha): >10

SMILES: CCn1c(-c2cnc(C)nc2)nc2c(N[C@H]3CCN(C(=O)N4CC[C@H](OC)C4)C3)ncnc21 [Compound 12-14]
- IC50 (PI3K-delta): 1.6 nM
- Selectivity versus PI3Kalpha (PI3K-alpha): >10

SMILES: CCn1c(-c2cnc(C)nc2)nc2c(N[C@H]3CCN(C(=O)N4CC[C@@H](OC)C4)C3)ncnc21 [Compound 12-15]
- IC50 (PI3K-delta): 8.2 nM
- Selectivity versus PI3Kalpha (PI3K-alpha): >10

SMILES: CCn1c(-c2cnc(C)nc2)nc2c(N[C@H]3CCN(C(=O)NC4CCCCC4)C3)ncnc21 [Compound 12-16, (3S)-N-cyclohexyl-3-{[9-ethyl-8-(2-methylpyrimidin-5-yl)-9H-purin-6-yl]amino}pyrrolidine-1-carboxamide]
- IC50 (PI3K-delta): 16 nM
- Selectivity versus PI3Kalpha (PI3K-alpha): >10

SMILES: CCOC(=O)CCNC(=O)N1CC[C@H](Nc2ncnc3c2nc(-c2cnc(C)nc2)n3CC)C1 [Compound 12-17, ethyl N-{[(3S)-3-{[9-ethyl-8-(2-methylpyrimidin-5-yl)-9H-purin-6-yl]amino}pyrrolidin-1-yl]carbonyl}-beta-alaninate]
- IC50 (PI3K-delta): 13 nM
- Selectivity versus PI3Kalpha (PI3K-alpha): >10

SMILES: CCOC(=O)C(C)NC(=O)N1CC[C@H](Nc2ncnc3c2nc(-c2cnc(C)nc2)n3CC)C1 (stereo partly drawn) [Compound 12-18, ethyl N-{[(3S)-3-{[9-ethyl-8-(2-methylpyrimidin-5-yl)-9H-purin-6-yl]amino}pyrrolidin-1-yl]carbonyl}(D and L)-alaninate]
- IC50 (PI3K-delta): 13 nM
- Selectivity versus PI3Kalpha (PI3K-alpha): >10

SMILES: CCn1c(-c2cnc(C)nc2)nc2c(N[C@H]3CCN(C(=O)NC(C)C)C3)ncnc21 [Compound 12-19, (3S)-3-{[9-ethyl-8-(2-methylpyrimidin-5-yl)-9H-purin-6-yl]amino}-N-(1-methylethyl)pyrrolidine-l-carboxamide]
- IC50 (PI3K-delta): 13 nM
- Selectivity versus PI3Kalpha (PI3K-alpha): >10

SMILES: CCn1c(-c2cnc(C)nc2)nc2c(N[C@H]3CCN(C(=O)NCc4ccco4)C3)ncnc21 [Compound 12-21, (3S)-3-{[9-ethyl-8-(2-methylpyrimidin-5-yl)-9H-purin-6-yl]amino}-N-(furan-2-ylmethyl)pyrrolidine-1-carboxamide]
- IC50 (PI3K-delta): 7 nM
- Selectivity versus PI3Kalpha (PI3K-alpha): >10

SMILES: CCn1c(-c2cnc(C)nc2)nc2c(N[C@H]3CCN(C(=O)NC4CCC4)C3)ncnc21 [Compound 12-22, (3S)-N-cyclobutyl-3-{[9-ethyl-8-(2-methylpyrimidin-5-yl)-9H-purin-6-yl]amino}pyrrolidine-1-carboxamide]
- IC50 (PI3K-delta): 5.3 nM
- Selectivity versus PI3Kalpha (PI3K-alpha): >10

SMILES: CCCCNC(=O)N1CC[C@H](Nc2ncnc3c2nc(-c2cnc(C)nc2)n3CC)C1 [Compound 12-23, (3S)-N-butyl-3-{[9-ethyl-8-(2-methylpyrimidin-5-yl)-9H-purin-6-yl]amino}pyrrolidine-1-carboxamide]
- IC50 (PI3K-delta): 3.5 nM
- Selectivity versus PI3Kalpha (PI3K-alpha): >10

SMILES: CCn1c(-c2cnc(C)nc2)nc2c(N[C@H]3CCN(C(=O)NC(C)(C)C(=O)OC)C3)ncnc21 [Compound 12-24, methyl N-{[(3S)-3-{[9-ethyl-8-(2-methylpyrimidin-5-yl)-9H-purin-6-yl]amino}pyrrolidin-1-yl]carbonyl}-2-methylalaninate]
- IC50 (PI3K-delta): 1.9 nM
- Selectivity versus PI3Kalpha (PI3K-alpha): >10

SMILES: CCn1c(-c2cnc(C)nc2)nc2c(N[C@H]3CCN(C(=O)NC(C)(C)CC(C)(C)C)C3)ncnc21 [Compound 12-25, (3S)-3-{[9-ethyl-8-(2-methylpyrimidin-5-yl)-9H-purin-6-yl]amino}-N-(1,1,3,3-tetramethylbutyl)pyrrolidine-1-carboxamide]
- IC50 (PI3K-delta): 1.4 nM
- Selectivity versus PI3Kalpha (PI3K-alpha): >10

SMILES: CCn1c(-c2ccc(C(F)(F)F)nc2)nc2c(N[C@H]3CCN(C(=O)N4CCC4)C3)ncnc21 [Compound 12-26, N-[(3S)-1-(azetidin-1-ylcarbonyl)pyrrolidin-3-yl]-9-ethyl-8-[6-(trifluoromethyl)pyridin-3-yl]-9H-purin-6-amine]
- IC50 (PI3K-delta): < 1 nM
- Selectivity versus PI3Kalpha (PI3K-alpha): >10

SMILES: CCn1c(C(=O)NCC(F)(F)F)nc2c(N[C@H]3CCN(C(=O)N4CC(OC)C4)C3)ncnc21 [Compound 12-27, 9-ethyl-6-({(3S)-1-[(3-methoxyazetidin-1-yl)carbonyl]pyrrolidin-3-yl}amino)-N-(2,2,2-trifluoroethyl)-9H-purine-8-carboxamide]
- IC50 (PI3K-delta): 5.1 nM
- Selectivity versus PI3Kalpha (PI3K-alpha): >10

SMILES: CCn1c(-c2cnc(C)nc2)nc2c(N[C@H]3CCN(C(=O)OCC(F)(F)F)C3)ncnc21 [Compound 13-1, 2,2,2-trifluoroethyl (3S)-3-{[9-ethyl-8-(2-methylpyrimidin-5-yl)-9H-purin-6-yl]amino}pyrrolidine-1-carboxylate]
- IC50 (PI3K-delta): 21 nM
- Selectivity versus PI3Kalpha (PI3K-alpha): >10

SMILES: CCn1c(-c2cnc(C)nc2)nc2c(N[C@H]3CCN(C(=O)OC)C3)ncnc21 [Compound 13-2, methyl (3S)-3-{[9-ethyl-8-(2-methylpyrimidin-5-yl)-9H-purin-6-yl]amino}pyrrolidine-l-carboxylate]
- IC50 (PI3K-delta): 9.2 nM
- Selectivity versus PI3Kalpha (PI3K-alpha): >10

SMILES: CCn1c(-c2cnc(C)nc2)nc2c(N[C@H]3CCN(C(=O)OCCF)C3)ncnc21 [Compound 13-3, 2-fluoroethyl (3S)-3-{[9-ethyl-8-(2-methylpyrimidin-5-yl)-9H-purin-6-yl]amino}pyrrolidine-1-carboxylate]
- IC50 (PI3K-delta): 8.7 nM
- Selectivity versus PI3Kalpha (PI3K-alpha): >10

SMILES: CCn1c(-c2cnc(C)nc2)nc2c(N[C@H]3CCN(C(=O)OCC(C)(C)C)C3)ncnc21 [Compound 13-4, 2,2-dimethylpropyl (3S)-3-{[9-ethyl-8-(2-methylpyrimidin-5-yl)-9H-purin-6-yl]amino}pyrrolidine-1-carboxylate]
- IC50 (PI3K-delta): 8.2 nM
- Selectivity versus PI3Kalpha (PI3K-alpha): >10

SMILES: CCn1c(-c2cnc(C)nc2)nc2c(N[C@H]3CCN(C(=O)OC(C)C)C3)ncnc21 [Compound 13-5, 1-methylethyl (3S)-3-{[9-ethyl-8-(2-methylpyrimidin-5-yl)-9H-purin-6-yl]amino}pyrrolidine-1-carboxylate]
- IC50 (PI3K-delta): 6.2 nM
- Selectivity versus PI3Kalpha (PI3K-alpha): >10

SMILES: CCn1c(-c2cnc(C)nc2)nc2c(N[C@H]3CCN(C(=O)OCCOC)C3)ncnc21 [Compound 13-7, 2-methoxyethyl (3S)-3-{[9-ethyl-8-(2-methylpyrimidin-5-yl)-9H-purin-6-yl]amino}pyrrolidine-1-carboxylate]
- IC50 (PI3K-delta): 4.1 nM
- Selectivity versus PI3Kalpha (PI3K-alpha): >10

SMILES: CCn1c(-c2cnc(C)nc2)nc2c(N[C@H]3CCN(C(=O)OC4CCCCC4)C3)ncnc21 [Compound 13-8, cyclohexyl (3S)-3-{[9-ethyl-8-(2-methylpyrimidin-5-yl)-9H-purin-6-yl]amino}pyrrolidine-l-carboxylate]
- IC50 (PI3K-delta): 3.9 nM
- Selectivity versus PI3Kalpha (PI3K-alpha): >10

SMILES: CCn1c(-c2cnc(C)nc2)nc2c(N[C@H]3CCN(C(=O)OCc4ccccc4)C3)ncnc21 [Compound 13-10, benzyl (3S)-3-{[9-ethyl-8-(2-methylpyrimidin-5-yl)-9H-purin-6-yl]amino}pyrrolidine-1-carboxylate]
- IC50 (PI3K-delta): 2 nM
- Selectivity versus PI3Kalpha (PI3K-alpha): >10

SMILES: CCn1c(-c2cnc(C)nc2)nc2c(N[C@H]3CCN(C(=O)OCCCN(C)C)C3)ncnc21 [Compound 13-11, 3-(dimethylamino)propyl (3S)-3-{[9-ethyl-8-(2-methylpyrimidin-5-yl)-9H-purin-6-yl]amino}pyrrolidine-1-carboxylate]
- IC50 (PI3K-delta): 4.3 nM
- Selectivity versus PI3Kalpha (PI3K-alpha): >10
